Values after ≈ are worked out from the molar mass of the structure shown. Like-named read-outs stand apart in the source and are kept apart here. Positions of bridges follow the written chain, without caps; N, C: chain ends. Residues, ends and D or L forms follow the SMILES beside them.
Key:
[1] = tested on: Enterococcus faecalis ATCC 29212; details: ATCC 29212
[2] = tested on: Streptococcus pneumoniae ATCC 51938; details: ATCC 51938
[3] = tested on: Pseudomonas aeruginosa (ATCC BAA-1744); details: ATCC BAA-1744
[4] = tested on: Enterococcus faecalis ATCC 51575; details: ATCC 51575
[5] = tested on: Escherichia coli (ATCC BAA-2452); details: ATCC BAA-2452
[6] = tested on: Pseudomonas aeruginosa (ATCC 10145); details: ATCC 10145
[7] = tested on: Klebsiella pneumoniae ATCC 13883; details: ATCC 13883
[8] = tested on: Enterococcus faecium ATCC 27270; details: ATCC 27270
[9] = tested on: Acinetobacter baumannii (ATCC BAA-1605); details: ATCC BAA-1605
[10] = tested on: Bacillus subtilis (ATCC-6633)
[11] = tested on: Bacillus cereus (ATCC-13061)
[12] = tested on: Enterococcus faecium ATCC 700221; details: ATCC 700221
[13] = tested on: Streptococcus pneumoniae ATCC 49619; details: ATCC 49619
[14] = tested on: Staphylococcus aureus ATCC 29213
[15] = tested on: Escherichia coli (E. Coli, ATCC 25922); details: Escherichia coli (ATCC 25922), antibiotic alone
[16] = tested on: Methicillin-resistant Staphylococcus aureus MRSA (ATCC BAA-1556); test: microbe, parasite or virus in culture; details: ATCCBAA1556|MRSA, 24 h
[17] = tested on: Pseudomonas aeruginosa (PSA, ATCC 27883); test: Synergy checkerboard assay (FIC index); type: cell-based; details: Pseudomonas aeruginosa (ATCC 27883), antibiotic alone; for MIC: ATCC27883, 24 h, Table 25
[18] = tested on: Escherichia coli (E. Coli, ATCC 25922); test: microbe, parasite or virus in culture; details: ATCC25922, 24 h
[19] = tested on: Pseudomonas aeruginosa (PSA, ATCC 27883); test: microbe, parasite or virus in culture; details: ATCC27883, 24 h
[20] = tested on: Klebsiella pneumoniae (KPC, ATCC BAA-1705); details: Klebsiella pneumoniae (ATCC BAA-1705), antibiotic alone
[21] = tested on: Klebsiella pneumoniae (KPC, ATCC BAA-1705); test: microbe, parasite or virus in culture; details: ATCCBAA1705, 24 h
[22] = tested on: Klebsiella pneumoniae (KPC, ATCC BAA-1705); test: microbe, parasite or virus in culture; details: ATCCBAA1705, 24 h, read-out: MIC of antibiotic
[23] = read-out: Escherichia coli (ATCC 25922) MIC, Table 28, IFX-031, antibiotics alone and PHY-MIX (1:1 w/w)
[24] = read-out: Escherichia coli (ATCC 25922) MIC, Table 29, [R6W4] (IFX-318), antibiotics alone and PHY-MIX (1:1 w/w)
[25] = read-out: Escherichia coli (ATCC 25922) MIC, Table 30, [R5W4K] (IFX-315), antibiotics alone and PHY-MIX (1:1 w/w)
[26] = read-out: Escherichia coli (ATCC 25922) MIC, Table 31, [R5W4] (IFX-301), antibiotics alone and PHY-MIX (1:1 w/w)
[27] = read-out: Pseudomonas aeruginosa (ATCC 27883) MIC, Table 28, IFX-031, antibiotics alone and PHY-MIX (1:1 w/w)
[28] = read-out: Pseudomonas aeruginosa (ATCC 27883) MIC, Table 29, [R6W4] (IFX-318), antibiotics alone and PHY-MIX (1:1 w/w)
[29] = read-out: Pseudomonas aeruginosa (ATCC 27883) MIC, Table 30, [R5W4K] (IFX-315), antibiotics alone and PHY-MIX (1:1 w/w)
[30] = read-out: Pseudomonas aeruginosa (ATCC 27883) MIC, Table 31, [R5W4] (IFX-301), antibiotics alone and PHY-MIX (1:1 w/w)
[31] = read-out: Klebsiella pneumoniae (ATCC BAA-1705) MIC, Table 28, IFX-031, antibiotics alone and PHY-MIX (1:1 w/w)
[32] = read-out: Klebsiella pneumoniae (ATCC BAA-1705) MIC, Table 29, [R6W4] (IFX-318), antibiotics alone and PHY-MIX (1:1 w/w)
[33] = read-out: Klebsiella pneumoniae (ATCC BAA-1705) MIC, Table 30, [R5W4K] (IFX-315), antibiotics alone and PHY-MIX (1:1 w/w)
[34] = read-out: Klebsiella pneumoniae (ATCC BAA-1705) MIC, Table 31, [R5W4] (IFX-301), antibiotics alone and PHY-MIX (1:1 w/w)

| Compound | MIC [1] [µg/mL] | MIC (PSA) [µg/mL] | MIC [3] [µg/mL] | MIC [4] [µg/mL] | MIC [5] [µg/mL] | MIC (E. coli) [µg/mL] | MIC [6] [µg/mL] | MIC [7] [µg/mL] | MIC [8] [µg/mL] | MIC [9] [µg/mL] | MIC [10] [µg/mL] | MIC [11] [µg/mL] | MIC [12] [µg/mL] | MIC (KPC) [µg/mL] | MIC (MRSA) [µg/mL] | MIC [14] [µg/mL] | MIC of antibiotic [15] [µg/mL] | MIC of antibiotic ([15]; Table 25) [µg/mL] | MIC of antibiotic ([15]; Table 26) [µg/mL] | MIC [17] [µg/mL] | further results |
| --- | --- | --- | --- | --- | --- | --- | --- | --- | --- | --- | --- | --- | --- | --- | --- | --- | --- | --- | --- | --- | --- |
| N=C(N)NCCC[C@@H]1NC(=O)[C@H](CCCNC(=N)N)NC(=O)[C@H](CCCNC(=N)N)NC(=O)[C@H](CCCCN)NC(=O)[C@H](Cc2c[nH]c3ccccc23)NC(=O)[C@H](Cc2c[nH]c3ccccc23)NC(=O)[C@H](Cc2c[nH]c3ccccc23)NC(=O)[C@H](Cc2c[nH]c3ccccc23)NC(=O)[C@H](CCCNC(=N)N)NC(=O)[C@H](CCCNC(=N)N)NC1=O [[R5W4K] (IFX-315)] (cyclo(RRRRRWWWWK)) | 16 (≈ 9.67 µM) | 16 (≈ 9.67 µM) | 16 (≈ 9.67 µM) | 32 (≈ 19.3 µM) | 25 (≈ 15.1 µM) | 16 (≈ 9.67 µM) | 32 (≈ 19.3 µM) | 8 (≈ 4.84 µM) | 8 (≈ 4.84 µM) | 32 (≈ 19.3 µM) | 8 (≈ 4.84 µM) | 16 (≈ 9.67 µM) | 8 (≈ 4.84 µM) | 32 (≈ 19.3 µM) | 8 (≈ 4.84 µM) | 8 (≈ 4.84 µM) |  |  |  |  | MIC [2]: 2 µg/mL (≈ 1.21 µM); MIC [13]: 2 µg/mL (≈ 1.21 µM) |
| N=C(N)NCCC[C@@H]1NC(=O)[C@H](CCCNC(=N)N)NC(=O)[C@H](CCCNC(=N)N)NC(=O)[C@@H]2CSSC[C@H](NC(=O)[C@H](CCCNC(=N)N)NC1=O)C(=O)N[C@@H](Cc1c[nH]c3ccccc13)C(=O)N[C@@H](Cc1c[nH]c3ccccc13)C(=O)N[C@@H](Cc1c[nH]c3ccccc13)C(=O)N[C@@H](Cc1c[nH]c3ccccc13)C(=O)N2 [[R3CW4CR] (IFX-330)] (cyclo(RRRCWWWWCR); disulfide 4-9) | 32 (≈ 20.3 µM) | 128 (≈ 81.3 µM) | 32 (≈ 20.3 µM) | 32 (≈ 20.3 µM) | 32 (≈ 20.3 µM) | 32 (≈ 20.3 µM) | 64 (≈ 40.7 µM) | 32 (≈ 20.3 µM) | 8 (≈ 5.08 µM) | 32 (≈ 20.3 µM) | 8 (≈ 5.08 µM) | 16 (≈ 10.2 µM) | 8 (≈ 5.08 µM) | 32 (≈ 20.3 µM) | 8 (≈ 5.08 µM) | 16 (≈ 10.2 µM) |  |  |  |  |  |
| NC[C@H]1O[C@H](O[C@H]2[C@H](O)[C@@H](O[C@H]3O[C@H](CO)[C@@H](O)[C@H](N)[C@H]3O)[C@H](N)C[C@@H]2N)[C@H](O)[C@@H](O)[C@@H]1O [Kanamycin] |  |  |  |  |  |  |  |  |  |  |  |  |  |  |  |  | 32 | 32 | 32 | 256 | MIC ([16]; read-out: MRSA (ATCC BAA-1556) MIC, Table 28, IFX-031, antibiotics alone and PHY-MIX (1:1 w/w)): > 64 µg/mL; MIC ([16]; read-out: MRSA (ATCC BAA-1556) MIC, Table 29, [R6W4] (IFX-318), antibiotics alone and PHY-MIX (1:1 w/w)): > 64 µg/mL; MIC ([16]; read-out: MRSA (ATCC BAA-1556) MIC, Table 30, [R5W4K] (IFX-315), antibiotics alone and PHY-MIX (1:1 w/w)): > 64 µg/mL; MIC ([16]; read-out: MRSA (ATCC BAA-1556) MIC, Table 31, [R5W4] (IFX-301), antibiotics alone and PHY-MIX (1:1 w/w)): > 64 µg/mL; MIC [18, 23]: 32 µg/mL (≈ 66 µM); MIC [18, 24]: 32 µg/mL (≈ 66 µM); MIC [18, 25]: 32 µg/mL (≈ 66 µM); MIC [18, 26]: 32 µg/mL (≈ 66 µM); MIC [19, 27]: > 64 µg/mL; MIC [19, 28]: > 64 µg/mL; MIC [19, 29]: > 64 µg/mL; MIC [19, 30]: > 64 µg/mL; MIC of antibiotic [20]: 64 µg/mL; MIC of antibiotics ([20]; Table 26): 64 µg/mL; MIC [21, 31]: 64 µg/mL (≈ 132 µM); MIC [21, 32]: 64 µg/mL (≈ 132 µM); MIC [21, 33]: 64 µg/mL (≈ 132 µM); MIC [21, 34]: 64 µg/mL (≈ 132 µM); MIC [22]: 64 µg/mL |
| C[C@H]1COc2c(N3CCN(C)CC3)c(F)cc3c(=O)c(C(=O)O)cn1c23 [Levofloxacin] |  |  |  |  |  |  |  |  |  |  |  |  |  |  |  |  | 64 | 64 | 64 | 1 | MIC of antibiotic ([17]; Table 26): 1 µg/mL; MIC [18, 23]: 16 µg/mL (≈ 44.3 µM); MIC [18, 24]: 64 µg/mL (≈ 177 µM); MIC [18, 25]: 64 µg/mL (≈ 177 µM); MIC [18, 26]: 64 µg/mL (≈ 177 µM); MIC [19, 27]: 1 µg/mL (≈ 2.77 µM); MIC [19, 28]: 1 µg/mL (≈ 2.77 µM); MIC [19, 29]: 1 µg/mL (≈ 2.77 µM); MIC [19, 30]: 1 µg/mL (≈ 2.77 µM); MIC of antibiotic [20]: 64 µg/mL; MIC [21, 31]: 32 µg/mL (≈ 88.6 µM); MIC [21, 32]: 64 µg/mL (≈ 177 µM); MIC [21, 33]: 64 µg/mL (≈ 177 µM); MIC [21, 34]: 64 µg/mL (≈ 177 µM); MIC [22]: 64 µg/mL |

Reference: patent US20220289794A1, “SYNTHETIC ANTIMICROBIAL PEPTIDES” (priority 2019, published 2022)
